This is an account of results in PubChem BioAssay (NCI).

Some test systems named below: SK-OV-3 ovarian; MOLT-4 leukemia; MALME-3M melanoma; BT-549 breast; M14 melanoma; OVCAR-3 ovarian; EKVX NSCLC; KM12 colon; LOX IMVI melanoma; SR leukemia.
What all share (experiment): NCI anticancer screen, dose series, 48 h

“And” between values parts separate entries of the source, which are not always exact repeats. Equal values may be shown once.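 In this assay, cells in 96-well plates receive the compound at five concentrations for 48 hours. Endpoints are linearly interpolated between the surrounding concentrations. Abbreviation: GI50, concentration required for 50% inhibition of growth. Definition used: TGI = concentration required for complete inhibition of growth.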

With `COc1ccc(-c2[nH]c3ccccc3c2C=C(C#N)C#N)cc1`, the GI50 is 0.434 µM with SK-OV-3 ovarian; 0.578 µM with MOLT-4 leukemia; 0.874 µM in the assay on MALME-3M melanoma; 0.769 µM in the assay with BT-549 breast; 0.289 µM with M14 melanoma; 0.263 µM with OVCAR-3 ovarian. The GI50 was 0.648 µM in the assay on EKVX NSCLC, 0.373 µM with KM12 colon and 1.73 µM with LOX IMVI melanoma. The TGI was 5.89 µM in the assay on SK-OV-3 ovarian; 5.53 µM in the assay with MOLT-4 leukemia; greater than 100 µM in the assay with MALME-3M melanoma; greater than 100 µM in the assay with BT-549 breast; 0.713 µM in the assay with OVCAR-3 ovarian; greater than 100 µM in the assay on EKVX NSCLC. The compound further returned a TGI with LOX IMVI melanoma greater than 100 µM.
In the case of `CC(C)=CCC[C@H](C)[C@@H]1CC[C@]2(C)C3CC[C@]4(OC4(C)C)C(CCCO)[C@]3(C)CC[C@@]12C` (some centres not stated), the GI50 in the assay on SR leukemia was 11.2 µM; in the assay with MOLT-4 leukemia, 18.2 µM; with MALME-3M melanoma, 27.3 µM; with BT-549 breast, 26 µM; in the assay on M14 melanoma it was 32.1 µM; in the assay with OVCAR-3 ovarian it was 26.7 µM. The GI50 is 20.7 µM with EKVX NSCLC, 22.5 µM in the assay with KM12 colon and 0.18 µM with LOX IMVI melanoma. In addition, the TGI was 28.1 µM in the assay with SR leukemia; 44.6 µM in the assay on MOLT-4 leukemia; 54.6 µM with MALME-3M melanoma; 51.7 µM with BT-549 breast; greater than 100 µM in the assay on M14 melanoma; 52.8 µM with OVCAR-3 ovarian. Besides, the TGI came out at 50.7 µM with EKVX NSCLC, 59.5 µM with KM12 colon and 16.5 µM with LOX IMVI melanoma.
Turning to `CC(=O)N1N=C2/C(=C/c3ccccc3)CC(C)CC2C1c1ccccc1` (configuration not stated), the GI50 is 17.1 µM in the assay with SK-OV-3 ovarian; 10.7 µM in the assay on SR leukemia; 8.72 µM with MOLT-4 leukemia; 18 µM with MALME-3M melanoma; 15.6 µM with BT-549 breast; 14.9 µM in the assay on OVCAR-3 ovarian. In addition, the figures for the GI50 in the assay with EKVX NSCLC, in the assay with KM12 colon and with LOX IMVI melanoma were 11.9 µM, 12.4 µM and 13.9 µM, respectively. For the same compound, the TGI came to 40.3 µM with SK-OV-3 ovarian; 33 µM with SR leukemia; 28.1 µM with MOLT-4 leukemia; 37.4 µM with MALME-3M melanoma; 33.1 µM in the assay with BT-549 breast; 32.6 µM in the assay with OVCAR-3 ovarian. Also, the TGI with EKVX NSCLC was 27.3 µM; in the assay with KM12 colon it was 33.9 µM; with LOX IMVI melanoma it was 29.9 µM.
`CC1=C(C(=O)Nc2ccc(F)c(Cl)c2)C(c2ccccc2Cl)NC(=S)N1` (configuration not stated): the GI50 with SK-OV-3 ovarian is greater than 50 µM; in the assay on SR leukemia, 23.1 µM; in the assay with MOLT-4 leukemia it was greater than 50 µM; with BT-549 breast it was greater than 50 µM; in the assay on M14 melanoma it was 34.9 µM; in the assay on OVCAR-3 ovarian it was 39.5 µM. The GI50 in the assay on EKVX NSCLC is greater than 50 µM; with KM12 colon it was 41.9 µM; in the assay on LOX IMVI melanoma, 15.1 µM. For the same compound, the TGI in the assay with SK-OV-3 ovarian, in the assay with SR leukemia, in the assay on MOLT-4 leukemia, in the assay on BT-549 breast, in the assay on M14 melanoma and in the assay on OVCAR-3 ovarian was greater than 50 µM in each case. Moreover, the TGI in the assay with EKVX NSCLC, with KM12 colon and in the assay on LOX IMVI melanoma was greater than 50 µM throughout.
For the compound `O=c1cc(-c2cccc(C(F)(F)F)c2)[nH]c2cc3c(cc12)OCO3`, the GI50 was 0.326 µM in the assay on SK-OV-3 ovarian; 0.338 µM in the assay with MOLT-4 leukemia; 0.359 µM in the assay with BT-549 breast; 0.41 µM in the assay on M14 melanoma; 0.486 µM in the assay with KM12 colon. The TGI is 29.1 µM and 16.8 µM in the assay with SK-OV-3 ovarian; greater than 100 µM in the assay with SR leukemia; 50 µM and > 100 µM in the assay with MOLT-4 leukemia; greater than 100 µM in the assay on MALME-3M melanoma; 50 µM and > 100 µM in the assay on BT-549 breast; 50 µM and > 100 µM in the assay on M14 melanoma. In addition, the TGI is 50 µM in the assay with EKVX NSCLC; 13 µM and > 100 µM in the assay with KM12 colon.
Take `N#C/C(=C\c1ccc(-c2ccc(Cl)cc2)o1)C(=O)Nc1ncc(Cc2ccc(Cl)cc2)s1`: the GI50 with SK-OV-3 ovarian is 3.24 µM; with SR leukemia, 0.772 µM; in the assay with MOLT-4 leukemia it was 3.75 µM; in the assay with BT-549 breast it was 2.34 µM; in the assay with M14 melanoma it was 2.04 µM; in the assay with OVCAR-3 ovarian, 1.41 µM. Further, the GI50 in the assay on EKVX NSCLC was 2 µM; in the assay on KM12 colon, 1.83 µM; in the assay on LOX IMVI melanoma it was 2.62 µM. For the same compound, the TGI was 9.52 µM with SK-OV-3 ovarian; 6.48 µM with SR leukemia; greater than 100 µM in the assay on MOLT-4 leukemia; 10.4 µM in the assay with BT-549 breast; 6.08 µM with M14 melanoma; 3.14 µM in the assay with OVCAR-3 ovarian. Moreover, the TGI in the assay with EKVX NSCLC worked out at 5.16 µM; with KM12 colon, 6.56 µM; with LOX IMVI melanoma, 7.55 µM.
For the compound `Oc1ccccc1-c1nn(CNc2cccc(Cl)c2)c(=S)o1`, the GI50 was greater than 100 µM in the assay on SK-OV-3 ovarian; 15.1 µM with SR leukemia; 94.4 µM with BT-549 breast; 35.8 µM in the assay on M14 melanoma; 30.4 µM in the assay with OVCAR-3 ovarian; 67.2 µM with EKVX NSCLC. The GI50 with KM12 colon was 37.2 µM. Moreover, the TGI was greater than 100 µM in the assay on SK-OV-3 ovarian; 49.4 µM with SR leukemia; greater than 100 µM in the assay with MOLT-4 leukemia; greater than 100 µM in the assay on BT-549 breast; greater than 100 µM in the assay with M14 melanoma; greater than 100 µM with OVCAR-3 ovarian. For the same compound, the TGI with EKVX NSCLC and with KM12 colon was greater than 100 µM in each case.
Consider `COc1ccc2nc(-c3cc(-c4cc(OC)c(OC)c(OC)c4)n[nH]3)[nH]c2c1`, for which the GI50 is 2.83 µM in the assay with SK-OV-3 ovarian; 1.74 µM with SR leukemia; 0.738 µM in the assay on MOLT-4 leukemia; 1.74 µM in the assay on MALME-3M melanoma; 0.899 µM in the assay with BT-549 breast; 1.66 µM in the assay with M14 melanoma. Moreover, the results for the GI50 in the assay with OVCAR-3 ovarian and in the assay with KM12 colon were 2.05 µM and 1.7 µM, respectively. Besides, the TGI came out at 9.17 µM in the assay on SK-OV-3 ovarian; 8.38 µM with SR leukemia; 3.27 µM in the assay with MOLT-4 leukemia; 6.4 µM in the assay on MALME-3M melanoma; 3.31 µM in the assay with BT-549 breast; 4.31 µM with M14 melanoma. Besides, the TGI was 6.18 µM in the assay with OVCAR-3 ovarian and 3.69 µM with KM12 colon.
